Data reported in patent US11878966B2, “Substituted 4-benzyl and 4-benzoyl piperidine derivates” (89BIO LTD, priority 2015, dated 2024).

Target: T1, recombinant human baculovirus-expressed GST-tagged FASN (Homo sapiens, UniProt P49327)
T1 construct: GST; host or cells: baculovirus expression system (insect cells implied)
Assay: FASN enzyme activity assay: fluorescence-based detection of CoA with CPM
Type: biochemical
Conditions: 5 nM FASN, 150 μM NADPH, 10 μM acetyl-CoA, 25 μM malonyl-CoA, 90 minutes incubation
Source text: FASN Enzyme activity may be determined by detecting coenzyme A (CoA), a product of FASN-catalyzed synthesis of palmitate from acetyl-CoA and malonyl-CoA with NADPH as a cofactor. The assay is fluorescence-based and measures the interaction of free CoA with 7-diethylamino-3-(4′-malemimidylphenyl)-4-methylcoumarin (CPM; Life Technologies, CA) as described in Chung et al (2008). The coumarin derivative CPM contains a thiol-reactive maleimide that becomes fluorescent upon interaction with the sulfhydryl group of CoA.
For the example compounds described herein, the reaction was performed in 384-well low volume non-binding platews (Corning, NY) using recombinant human baculovirus-expressed GST-tagged FASN. The 20-μL assay mixture contained 50 mM HEPES (pH 7.5), 5 nM FASN, 150 μM NADPH (Sigma, St. Louis, MO), 10 μM acetyl-CoA (Sigma), 25 μM malonyl-CoA (Sigma) and test compound [diluted in dimethyl sulfoxide (DMSO); 0.5% DMSO final in assay after 100 nL addition]. See, Chung et al.; “A fluorescence-based thiol quantification assay for ultra-high-throughput screening for inhibitors of coenzyme A production,” Assay Drug Dev Tech 2008; 6:361-374.
The reaction was initiated by adding malonyl-CoA, followed by incubation for 90 minutes at […]. A stock solution of the CPM reagent was prepared in DMSO al 66 μM and stored at […]. To detect CoA produced in the FASN reaction, the CPM stock was diluted to 50 μM in 70% ethanol and added at 4 μL/well to the assay place. The reaction mixture was then incubated for 30 minutes. Fluorescence was measured using the EnVision™ 2102 multi-label plate reader (PerkinElmer, Waltham, MA) utilizing a general dual mirror, a 390 nm excitation filter and a 530 nm emission filter. Data analysis was performed using ActivityBase (IDBS, Guilford, UK). IC50 values were calculated by plotting the percent inhibition versus log 10 of the concentration of the compound, and fitting to the nonlinear regression sigmoidal dose-response (variable slope) equation in XLFit (IDBS).

T1 sequence (P49327 whole entry): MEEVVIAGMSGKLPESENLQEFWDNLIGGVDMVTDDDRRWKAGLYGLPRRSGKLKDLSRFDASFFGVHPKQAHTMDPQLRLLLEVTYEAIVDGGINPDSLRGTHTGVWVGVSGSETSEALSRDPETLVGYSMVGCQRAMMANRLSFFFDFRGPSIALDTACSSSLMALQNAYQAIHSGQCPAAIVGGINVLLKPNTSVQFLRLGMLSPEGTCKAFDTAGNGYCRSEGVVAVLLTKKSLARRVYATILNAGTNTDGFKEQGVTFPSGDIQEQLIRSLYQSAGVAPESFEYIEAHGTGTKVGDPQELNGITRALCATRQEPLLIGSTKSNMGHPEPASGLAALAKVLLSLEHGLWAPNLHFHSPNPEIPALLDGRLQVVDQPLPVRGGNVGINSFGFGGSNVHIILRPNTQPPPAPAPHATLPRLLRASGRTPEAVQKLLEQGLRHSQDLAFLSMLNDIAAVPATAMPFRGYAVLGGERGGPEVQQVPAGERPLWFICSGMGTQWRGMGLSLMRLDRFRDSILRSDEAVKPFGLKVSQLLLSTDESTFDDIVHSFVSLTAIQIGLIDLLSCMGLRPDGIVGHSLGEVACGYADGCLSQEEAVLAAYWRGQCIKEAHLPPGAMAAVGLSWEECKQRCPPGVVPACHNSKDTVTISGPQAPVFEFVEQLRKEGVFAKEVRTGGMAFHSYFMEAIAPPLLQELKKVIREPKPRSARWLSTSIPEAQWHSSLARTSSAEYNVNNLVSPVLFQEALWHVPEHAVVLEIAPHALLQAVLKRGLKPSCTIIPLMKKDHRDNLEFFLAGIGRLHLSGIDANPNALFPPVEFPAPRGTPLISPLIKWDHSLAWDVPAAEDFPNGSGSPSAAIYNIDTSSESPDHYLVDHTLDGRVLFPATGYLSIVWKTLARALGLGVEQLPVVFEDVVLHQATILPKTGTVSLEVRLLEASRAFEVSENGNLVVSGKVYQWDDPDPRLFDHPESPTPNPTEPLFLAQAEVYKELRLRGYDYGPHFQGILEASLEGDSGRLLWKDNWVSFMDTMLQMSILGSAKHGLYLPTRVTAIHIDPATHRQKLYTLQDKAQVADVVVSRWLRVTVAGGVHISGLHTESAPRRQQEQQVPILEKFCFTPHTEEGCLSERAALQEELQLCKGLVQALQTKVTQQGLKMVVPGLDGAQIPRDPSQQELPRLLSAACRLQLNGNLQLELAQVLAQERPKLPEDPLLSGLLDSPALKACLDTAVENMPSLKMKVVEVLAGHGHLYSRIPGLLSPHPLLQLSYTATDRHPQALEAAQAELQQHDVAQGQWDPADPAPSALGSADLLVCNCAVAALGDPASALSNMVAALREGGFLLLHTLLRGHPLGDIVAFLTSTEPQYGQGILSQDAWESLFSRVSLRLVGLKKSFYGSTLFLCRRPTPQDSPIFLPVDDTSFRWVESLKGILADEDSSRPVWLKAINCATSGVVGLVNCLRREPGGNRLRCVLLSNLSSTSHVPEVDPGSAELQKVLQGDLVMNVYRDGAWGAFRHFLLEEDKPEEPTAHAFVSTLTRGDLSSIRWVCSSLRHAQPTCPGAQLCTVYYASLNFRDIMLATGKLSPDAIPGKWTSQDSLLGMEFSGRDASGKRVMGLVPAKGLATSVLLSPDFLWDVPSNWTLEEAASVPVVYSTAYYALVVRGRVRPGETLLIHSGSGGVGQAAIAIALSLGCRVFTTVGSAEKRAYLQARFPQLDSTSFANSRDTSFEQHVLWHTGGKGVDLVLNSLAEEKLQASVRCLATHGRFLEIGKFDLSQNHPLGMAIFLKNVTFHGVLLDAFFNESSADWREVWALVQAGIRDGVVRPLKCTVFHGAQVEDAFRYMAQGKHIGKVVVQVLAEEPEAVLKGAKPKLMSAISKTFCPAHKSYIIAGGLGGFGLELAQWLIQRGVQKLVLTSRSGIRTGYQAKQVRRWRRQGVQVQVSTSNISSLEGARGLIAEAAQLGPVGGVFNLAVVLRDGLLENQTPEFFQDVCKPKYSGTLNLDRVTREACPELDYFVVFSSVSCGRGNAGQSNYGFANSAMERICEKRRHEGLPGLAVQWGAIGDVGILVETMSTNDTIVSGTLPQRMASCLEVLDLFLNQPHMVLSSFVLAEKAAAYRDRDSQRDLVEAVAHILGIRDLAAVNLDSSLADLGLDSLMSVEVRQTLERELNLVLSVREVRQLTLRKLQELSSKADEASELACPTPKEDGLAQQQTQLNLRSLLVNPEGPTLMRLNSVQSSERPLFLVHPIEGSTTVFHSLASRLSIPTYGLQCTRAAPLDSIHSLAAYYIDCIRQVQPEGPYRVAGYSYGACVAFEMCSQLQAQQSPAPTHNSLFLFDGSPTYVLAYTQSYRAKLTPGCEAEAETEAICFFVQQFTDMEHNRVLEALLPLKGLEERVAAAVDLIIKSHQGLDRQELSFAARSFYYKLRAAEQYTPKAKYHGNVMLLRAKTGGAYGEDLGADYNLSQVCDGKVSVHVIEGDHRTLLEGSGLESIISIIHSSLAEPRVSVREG

Compound | IC50 [nM]
CCC(=O)N1CCC(Cc2ccc(-c3cc4ccccc4cn3)cc2)CC1 [Example 26, 1-[4-(4-Isoquinolin-3-yl-benzyl)-piperidin-1-yl]-propan-1-one] | 1000 to 10000
O=C([C@H]1CCCO1)N1CCC(C(OCCN2CCCC2)c2ccc(-c3cnc4ccccc4c3)cc2)CC1 (stereo partly drawn) [Example 88, {4-[(2-Pyrrolidin-1-yl-ethoxy)-(4-quinolin-3-yl-phenyl)-methyl]-piperidin-1-yl}-(R)-tetrahydrofuran-2-yl-methanone] | 100 to 999
Cc1c(-c2ccc(CC3=CCN(C(=O)C4CC4)CC3)cc2)cnc2ccccc12 [Example 192, Cyclopropyl(4-(4-(4-methylquinolin-3-yl)benzyl)-5,6-dihydropyridin-1(2H)-yl)methanone] | 100 to 999
CC(C)C(=O)N1CCC(C(O)c2ccc(-c3ccc4ncccc4c3)cc2)CC1 (centres unmarked) [Example 110, 1-{4-[Hydroxy-(4-quinolin-6-yl-phenyl)-methyl]-piperidin-1-yl}-2-methyl-propan-1-one] | 1000 to 10000
CCC(=O)N1CCC(C(F)(F)c2ccc(-c3cnc4ccccc4c3C)cc2)CC1 [Example 9, 1-(4-{difluoro-[4-(4-methyl-quinolin-3-yl)-phenyl]-methyl}-piperidin-1-yl)-propan-1-one] | 100 to 999
CCC(=O)N1CC=C(Cc2ccc(-c3ccc4cccnc4c3)cc2)CC1 [Example 164, 1-(4-(4-(quinolin-7-yl)benzyl)-5,6-dihydropyridin-1(2H)-yl)propan-1-one] | 100 to 999
CCC(OC)(c1ccc(-c2cnc3ccccc3c2)cc1)C1CCN(C(=O)C2CC2)CC1 (centres unmarked) [Example 211, Cyclopropyl-{4-[1-methoxy-1-(4-quinolin-3-yl-phenyl)-propyl]-piperidin-1-yl}-methanone] | 1000 to 10000
CCC(OC)(c1ccc(-c2ccc3cccnc3c2)cc1)C1CCN(C(=O)C2CC2)CC1 (centres unmarked) [Example 217, Cyclopropyl-{4-[1-methoxy-1-(4-quinolin-7-yl-phenyl)-propyl]-piperidin-1-yl}-methanone] | 1000 to 10000
O=C(NC1CCCC1)N1CCC(C2(c3ccc(-c4ccc5ncccc5c4)cc3)OCCO2)CC1 [Example 107, 4-[2-(4-Quinolin-6-yl-phenyl)-1,3-dioxolan-2-yl]-piperidine-1-carboxylic Acid Cyclopentylamide] | 1000 to 10000
CCC(=O)N1CCC(C(N)c2ccc(-c3cnc4ccccc4c3)cc2)CC1 (centres unmarked) [Example 43, 1-{4-[amino-(4-quinolin-3-yl-phenyl)-methyl]-piperidin-1-yl}-propan-1-one] | 1000 to 10000
CCC(=O)N1CCC(C(NC(C)=O)c2ccc(-c3cnc4ccccc4c3)cc2)CC1 (centres unmarked) [Example 53, N-[(1-Propionylpiperidin-4-yl)-(4-quinolin-3-yl-phenyl)-methyl]-acetamide] | 1000 to 10000
CCC(=O)N1CCC(C2(c3ccc(-c4ccc5cccnc5c4)cc3)OCCCO2)CC1 [Example 123, 1-{4-[2-(4-Quinolin-7-yl-phenyl)-1,3-dioxinan-2-yl]-piperidin-1-yl}-propan-1-one] | 1000 to 10000
CN(C)C(=O)N1CCC(C2(c3ccc(-c4ccc5ncccc5c4)cc3)OCCO2)CC1 [Example 103, 4-[2-(4-Quinolin-6-yl-phenyl)-1,3-dioxolan-2-yl]-piperidine-1-carboxylic acid dimethylamide] | 1000 to 10000
Cc1nccc2cc(-c3ccc(C4(C5CCN(C(=O)[C@H]6CCCO6)CC5)CC4)cc3)ccc12 [Example 78, (4-{1-[4-(1-Methylisoquinolin-6-yl)-phenyl]-cyclopropyl}-piperidin-1-yl)-(R)-tetrahydrofuran-2-yl-methanone] | 1000 to 10000
CC(C)C(=O)N1CCC(C2(c3ccc(-c4cnc5ccccc5c4)cc3)OCCO2)CC1 [Example 140, 2-Methyl-1-{4-[2-(4-quinolin-3-yl-phenyl)-1,3-dioxolan-2-yl]-piperidin-1-yl}-propan-1-one] | 100 to 999
O=C(C1CC1)N1CCC(C2(c3ccc(-c4cnc5ccccc5c4)cc3)OCCO2)CC1 [Example 141, Cyclopropyl-(4-[2-(4-quinolin-3-yl-phenyl)-1,3-dioxolan-2-yl]-piperidin-1-yl)-methanone] | 100 to 999
CCC(=O)N1CC[C@@H](Cc2ccc(-c3cnc4ccccc4c3)cc2)[C@H](OC)C1 (relative stereo) [Example 219, 1-[(trans)-3-Methoxy-4-(4-quinolin-3-yl-benzyl)-piperidin-1-yl]-propan-1-one] | 100 to 999

Now from value to compound:

IC50 [nM] | Compound
1 to 99 | O=C(C1CC1)N1CCC(F)(Cc2ccc(-c3cnc4ccccc4c3)cc2)CC1 [Example 171, Cyclopropyl(4-fluoro-4-(4-(quinolin-3-yl)benzyl)piperidin-1-yl)methanone]
1 to 99 | Cc1c(-c2ccc(CC3CCN(C(=O)C4(O)CC4)CC3)cc2)ccc2nccn12 [Example 96, (1-Hydroxycyclopropyl)-{4-[4-(5-methylimidazo[1,2-a]pyridin-6-yl)-benzyl]-piperidin-1-yl}-methanone]
1 to 99 | CCC(=O)N1CCC(C(C)c2ccc(-c3ccc4cccnc4c3OC)cc2)CC1 (centres unmarked) [Example 64, 1-(4-{1-[4-(8-Methoxyquinolin-7-yl)-phenyl]-ethyl}-piperidin-1-yl)-propan-1-one]
1 to 99 | CCC(=O)N1CCC(C(C)c2ccc(-c3ccc4cccnc4c3)cc2)CC1 (centres unmarked) [Example 42, 1-{4-[1-(4-Quinolin-7-yl-phenyl)-ethyl]-piperidin-1-yl}-propan-1-one]
1 to 99 | CCC(=O)N1CCC(Cc2ccc(-c3ccc4cccnc4c3Cl)cc2)CC1 [Example 29, 1-{4-[4-(8-Chloroquinolin-7-yl)-benzyl]-piperidin-1-yl}-propan-1-one]
1 to 99 | CCC(=O)N1CCC(C(C)c2ccc(-c3ccc4cccnc4c3C)cc2)CC1 (centres unmarked) [Example 62, 1-(4-{1-[4-(8-methylquinolin-7-yl)-phenyl]-ethyl}-piperidin-1-yl)-propan-1-one]
1 to 99 | O=C([C@H]1CCCO1)N1CCC(Cc2ccc(-c3cc4ccccc4cn3)cc2)CC1 [Example 28, [4-(4-Isoquinolin-3-yl-benzyl)-piperidin-1-yl]-(R)-tetrahydrofuran-2-yl-methanone]
1 to 99 | O=C(C1CC1)N1CCC(F)(Cc2ccc(-c3cnc4ccccc4c3Cl)cc2)CC1 [Example 197, (4-(4-(4-Chloroquinolin-3-yl)benzyl)-4-fluoropiperidin-1-yl)(cyclopropyl)-methanone]
1 to 99 | CCC(=O)N1CCC(F)(Cc2ccc(-c3cnc4ccccc4c3C)cc2)CC1 [Example 195, 1-(4-Fluoro-4-(4-(4-methylquinolin-3-yl)benzyl)piperidin-1-yl)propan-1-one]
1 to 99 | CCC(=O)N1CCC(C(C)(OC)c2ccc(-c3ccc4cccnc4c3)cc2)CC1 (centres unmarked) [Example 212, 1-{4-[1-Methoxy-1-(4-quinolin-7-yl-phenyl)-ethyl]-piperidin-1-yl}-propan-1-one]
1 to 99 | Cc1nccc2cc(-c3ccc(CC4CCN(C(=O)C5CC5)CC4)cc3)ccc12 [Example 36, Cyclopropyl-{4-[4-(1-methyl-isoquinolin-6-yl)-benzyl]-piperidin-1-yl}-methanone]
1 to 99 | CCC(=O)N1CCC(C(O)c2ccc(-c3ccc4cnccc4c3)cc2F)CC1 (centres unmarked) [Example 128, 1-{4-[(2-Fluoro-4-isoquinolin-6-yl-phenyl)-hydroxy-methyl]-piperidin-1-yl}-propan-1-one]
